Source: patent US6657106B2, “Removal of metals from contaminated substrates by plants” (ISIS Innovation Limited, priority 1995, dated 2003)
“Also recorded” adds a separate entry of the source.

Key:
[1] = tested on: A. montanum; assay: Effect of foliar spraying with histidine on nickel tolerance; assay type: in vivo, Alyssum montanum; details: 20 mM histidine daily foliar spray with 0.01% Tween 20; 0.03 mM NiSO4 in root medium, 23 d; compared with 20 mM glutamine
Description: 6. […]. Thus, chelation of nickel by histidine is important both in the detoxification of the metal ion within the plant and in facilitating the transport of the metal from root to shoot, a characteristic of metal-hyperaccumulator plants generally (Baker, A. J. M. and Brooks, R. R. (1989) loc. cit.).
METHODS. Plants were germinated for 7 d on floating nets in 1 mM Ca(NO3)2 solution, subsequently transferred to 1.2-1 culture vessels (10 plants per vessel), and supplied with modified 0.1-strength Hoagland solution containing 0.1 mM KH2PO4, 0.5 mM KNO3, 0.4 mM Ca(NO3)2, 0.2 mM MgSO4, 0.01 mM FeNaEDTA, 0.01 mM H3BO3, 2 μM MnSO4, 0.2 μM ZnSO4, 0.2 μM CuSO4, 0.1 μM Na2MoO4 and 0.02 mM NaCl, supplemented with 0, 0.01, 0.03, 0.1, 0.3, 1, or 3 mM NiSO4. Plants were grown in a glasshouse at night temperatures between 14° C. and 18° C. and day temperatures between 22° C. and 34° C. with supplementary lighting provided by sodium-vapour lamps to give a 16-h photoperiod. Culture solutions were continuously aerated and exchanged every 7 d; solution pH remained in the range 5.6 to 6.0. Plants were harvested after 18 d, rinsed with distilled water, dried at 80° C. for 48 h and weighed. […].
FIG. 4. […] Values of biomass production and root elongation are for nickel-treated plants expressed as percentages of the respective controls grown in the absence of nickel. […]

[2] = tested on: A. montanum; assay: Effect of histidine in the root medium on xylem-sap exudation and nickel flux of excised roots; assay type: in vivo, Alyssum montanum; details: 0.3 mM NiSO4 with or without 0.3 mM histidine in root medium, exudate collected over 12 h
Description: 6. […] That is, the application of relatively high concentrations of histidine exogenously is able to increase markedly both the nickel tolerance of an otherwise non-tolerant species of Alyssum (A. montanum) and to cause these plants to translocate nickel out of the root system at much higher rates. Thus, chelation of nickel by histidine is important both in the detoxification of the metal ion within the plant and in facilitating the transport of the metal from root to shoot, a characteristic of metal-hyperaccumulator plants generally (Baker, A. J. M. and Brooks, R. R. (1989) loc. cit.).
FIG. 4. Effect of exogenously applied histidine on nickel tolerance and xylem nickel translocation. a, Effect of foliar spraying with histidine (compared with glutamine) on nickel tolerance of A. montanum, assayed as the effect on whole-plant dry biomass production and root elongation. After germination for 7 d, plants were grown in modified Hoagland solution (FIG. 1) containing either 0 or 0.03 mM NiSO4 for 23 d and were sprayed daily with a solution of either 20 mM glutamine (Ni) or 20 mM histidine (His+Ni), both containing 0.01% (v/v) of the non-ionic detergent Tween 20. Values of biomass production and root elongation are for nickel-treated plants expressed as percentages of the respective controls grown in the absence of nickel. Each bar represents the mean of 9 plants+1 SE. […]

[3] = tested on: A. montanum; details: histidine supplied to the xylem of excised shoots; cited from earlier work
[4] = tested on: A. montanum; details: histidine supplied to the root medium of excised roots; earlier symposium report; cited from earlier work
[5] = tested on: A. lesbiacum; assay: Effect of histidine in the root medium on xylem-sap exudation and nickel flux of excised roots; assay type: in vivo, Alyssum lesbiacum; details: 0.3 mM NiSO4 with or without 0.3 mM histidine in root medium, 12 h
Description: FIG. 4. Effect of exogenously applied histidine on nickel tolerance and xylem nickel translocation. a, Effect of foliar spraying with histidine (compared with glutamine) on nickel tolerance of A. montanum, assayed as the effect on whole-plant dry biomass production and root elongation. […]. Values of biomass production and root elongation are for nickel-treated plants expressed as percentages of the respective controls grown in the absence of nickel. […]. Roots of 4-week-old plants were excised and exposed to a root medium of modified Hoagland solution supplemented with either 0.3 mM MgSO4 (controls) or 0.3 mM NiSO4, with or without 0.3 mM added histidine.

N[C@@H](Cc1c[nH]cn1)C(=O)O [histidine]
root elongation (inhibitory effect of nickel) [1]: halving of the inhibitory effect; also recorded: significantly greater
whole-plant dry biomass production [1]: more than twofold increase; also recorded: significantly greater
flux of nickel through the xylem [2]: greatly increased; also recorded: significantly greater
rate of xylem-sap exudation [2]: moderated the adverse effect of nickel; also recorded: significantly greater
toxicity of nickel [3]: apparently reduced the toxicity of nickel
toxicity of nickel (exudation of sap, flux of nickel through the root system) [4]: apparently reduced the toxicity of nickel
nickel flux [5]: no significant differences
xylem exudation rate [5]: no significant differences
